Patent publication US20070259866A1, “Method of Adenovirus, HIV and HPV Prophylaxis” (priority 1999, published 2007)
Where “and” joins values, the source holds several entries; their conditions need not be identical. Equal entries are not always repeated. Entries after “also recorded” stand apart in the source; their conditions may differ.

Tests used:
[1] = test system: NL-HX-ADA (macrophage-tropic isolate) Virus; experiment: Control infections: untreated NL-HX-ADA virus added to PBMC cultures containing the final dilution of the drug; format: cell-based, Human Immunodeficiency Virus (HIV); details: for Control culture: # infected cells/area (~500 cells) / Control culture: Average # infected cells/area: untreated virus; for Control culture: # infected cells/area (~500 cells): single area counts
Protocol: (§1) After the 1 hr treatment period, the virus-drug solutions were diluted 1:1,000 with complete medium, and then mixed with an equal volume of Peripheral Blood Mononucleocyte (PBMC) cells, for a final dilution of virus and drug of 1:4,000.
(§2) The infected cultures were then incubated without any washing or other changes in media for 4 days (for the M-tropic NL-HX-ADA type) and 8 days (for the T-tropic NL-HX type). The cultures were then assayed for infection using standard fluorescent focus assays to quantitate infected cells.
Control infections were performed by adding untreated viruses at a p24 concentration of 1 ng/ml into cultures containing the final dilution of the drug. This controlled for any residual effect the diluted drug may have on the health of the PBMC culture and their ability to replicate virus.

[2] = test system: NL-HX-ADA (macrophage-tropic isolate) Virus; experiment: Inactivation of HIV stock by 1 hr drug treatment, then PBMC infection, fluorescent focus assay (NL-HX-ADA); format: cell-based, Human Immunodeficiency Virus (HIV); details: for Average # infected cells/area / # infected cells/area (~500 cells): 4 days; for # infected cells/area (~500 cells): single area counts
Protocol: In a study of the prophylactic effects of Compound 96 on Human Immunodeficiency Virus (HIV), virus stock solutions were inactivated by treatment with Compound 96. Stock solutions of viral types NL-HX-ADA having a p24 concentration of 4.1 μg/ml and NL-HX (P122) having a p24 concentration of 3.8 μg/ml were used for the study, along with a stock solution of Compound 96 having a concentration of 20 mg/ml in RPMI media.
Concentrated stock solution of viruses were treated for 1 hr with equal volume of medium containing the drug at the following concentrations:
as §1, §2

[3] = test system: NL-HX-ADA (molecularly cloned macrophage-tropic type of HIV-1); experiment: Extended dose response for inactivation of HIV-1 by CTC96, fluorescent focus assay in PBMCs; format: cell-based; details: 1 hour
Protocol: • Stock virus: NL-HX-ADA ˜5.5 μg/ml p24 (This is a molecularly cloned macrophage-tropic type of HIV-1). Virus was used to infect cells at 1:4,000 final dilution (˜1.4 ng/ml p24). Stock CTC-96: 10 mg/ml prepared directly in RPMI 1640 Method: Concentrated stock solution of virus was treated for 1 hour with equal volume of medium containing the drug at the indicated concentrations (1:2 dilution). The virus/drug mixture was then diluted 1,000-fold (1:2,000 dilution) and then added to an equal volume of PHA-activated humans PBMCs (1:4,000 final dilution) to allow virus replication to occur. The extent of infection was measured after 4 days by a fluorescent focus assay and compared to that of a control culture not containing any drug.

[4] = Mouse mortality, survival and weight change in the HPV-11 xenograft SCID mouse experiment; format: in vivo, scid/scid mice; details: for Mouse Status at the end of the Experiment: Alive / Mouse Status at the end of the Experiment: Dead: of 12 mice
Excerpt: Each experiment was done in quadruplicate. Twelve mice were used in each replicate. For each replicate, the four treatment groups were made of 3 mice (3 animals per cage). Each mouse received under the skin of each flank one HPV-11-infected foreskin fragment. Two foreskin donors were used, one for the fragments implanted under the left flank and a different one for the fragments implanted under the right flank. The HPV-11-infected grafts were left to grow for 12 weeks, while the mice weights were monitored every other week. At the end of the 12 weeks, the animals were sacrificed and the grafts recovered, measured and processed.
Six to 7 week old male scid/scid mice were used
The animals were monitored weekly. They were weighed at the time of grafting, and every other week during the 12 weeks of the experiment.
Animals were to be prematurely euthanitized if during monitoring any of the following criteria were met: • greater than 10% weight loss; • bleeding or bruising; • inability to maintain righting reflex; • inability to move about; • inability to eat or drink; • tumor greater than 30% of the animal's body weight.
The animals were otherwise sacrificed by cervical dislocation 12 weeks after graft implantation. Length, width, and height of the graft were measured and recorded. The graft were then removed and split in at least two parts. One part was fixed in buffered formalin. The other part was either left as is, or subdivided for subsequent analyses in as many fragments as size permitted. These fragments were placed in a sterile labelled vial and frozen in liquid nitrogen before being transferred to a −80° C. freezer.
Those animals dying unexpectedly before the date of the scheduled euthanasia had their grafts measured and fixed in formalin, if body decomposition was not too advanced.

adenovirus = experiment: Inhibition of adenovirus infection in 293T cells in vitro; format: cell-based
Excerpt: Compound 96 inhibited adenovirus infection 100% in 293T cells in vitro.

[5] = virus treated 1 hr at 0.625 mg/ml
[6] = virus treated 1 hr at 1.25 mg/ml
[7] = virus treated 1 hr at 2.5 mg/ml

SMILES: CC1=CC(C)=[N+]2CC[N+]3=C(C)C=C(C)[O][Co-4]23([n+]2cc[nH]c2C)([n+]2cc[nH]c2C)[O]1.[Br-] [Compound 96]
- toxicity or inhibition in control cultures receiving the diluted drugs ([1]; even at the highest concentration tested (5 μg/ml)): No toxicity or inhibition
- Control culture: # infected cells/area (~500 cells) ([1]; culture with final dilution of the 0.625 mg/ml (residual 0.3 μg/ml)): 17 cells/area and 16 cells/area and 18 cells/area
- Control culture: # infected cells/area (~500 cells) ([1]; culture with final dilution of the 1.25 mg/ml (residual 0.6 μg/ml)): 16 cells/area and 15 cells/area and 17 cells/area and 18 cells/area
- Control culture: # infected cells/area (~500 cells) ([1]; culture with final dilution of the 2.5 mg/ml column (residual 1.25 μg/ml)): 17 cells/area and 18 cells/area and 15 cells/area and 16 cells/area
- Control culture: # infected cells/area (~500 cells) ([1]; culture with final dilution of the 5 mg/ml column (residual 2.5 μg/ml)): 16 cells/area and 17 cells/area and 15 cells/area and 18 cells/area
- Control culture: # infected cells/area (~500 cells) ([1]; culture with final dilution of the 10 mg/ml column (residual 5 μg/ml)): 15 cells/area and 16 cells/area and 17 cells/area
- Control culture: Average # infected cells/area ([1]; final dilution of the 0.625 mg/ml column (residual 0.3 μg/ml)): 16.50 cells/area
- Control culture: Average # infected cells/area ([1]; final dilution of the 1.25 mg/ml column (residual 0.6 μg/ml)): 16.38 cells/area
- Control culture: Average # infected cells/area ([1]; final dilution of the 2.5 mg/ml column (residual 1.25 μg/ml)): 16.50 cells/area
- Control culture: Average # infected cells/area ([1]; final dilution of the 5 mg/ml column (residual 2.5 μg/ml)): 16.25 cells/area
- Control culture: Average # infected cells/area ([1]; final dilution of the 10 mg/ml column (residual 5 μg/ml)): 16.00 cells/area
- reduction in infectivity ([2]; any drug-treated sample vs control infection (800-1200 infected cells per well)): ≥ 1,000 fold
- infected cells when the entire well was scanned ([2]; any of the drug-treated samples): No infected cells were detected
- inactivation of treated virus ([2]; even at the lowest concentration of drug tested (0.625 mg/ml), 1 hr treatment): completely inactivated
- Average # infected cells/area [2, 5]: 0 cells/area
- # infected cells/area (~500 cells) [2, 5]: 0 cells/area
- Average # infected cells/area [2, 6]: 0 cells/area
- # infected cells/area (~500 cells) [2, 6]: 0 cells/area
- Average # infected cells/area [2, 7]: 0 cells/area
- # infected cells/area (~500 cells) [2, 7]: 0 cells/area
- Average # infected cells/area ([2]; virus treated 1 hr at 5 mg/ml): 0 cells/area
- # infected cells/area (~500 cells) ([2]; virus treated 1 hr at 5 mg/ml): 0 cells/area
- Average # infected cells/area ([2]; virus treated 1 hr at 10 mg/ml): 0 cells/area
- # infected cells/area (~500 cells) ([2]; virus treated 1 hr at 10 mg/ml): 0 cells/area
- % Neutralization ([3]; Batch A: [CTC96] during incubation with virus 5 mg/ml (initial 10 mg/ml; after final dilution 2.5 ng/ml)): 100%
- % Neutralization ([3]; Batch B: [CTC96] during incubation with virus 2.5 mg/ml (initial 5 mg/ml; after final dilution 1.25 ng/ml)): 100%
- % Neutralization ([3]; Batch C: [CTC96] during incubation with virus 1.25 mg/ml (initial 2.5 mg/ml; after final dilution 0.61 ng/ml)): 100%
- % Neutralization ([3]; Batch D: [CTC96] during incubation with virus 0.625 mg/ml (initial 1.25 mg/ml; after final dilution 0.31 ng/ml)): 100%
- % Neutralization ([3]; Batch E: [CTC96] during incubation with virus 0.312 mg/ml (initial 0.6 mg/ml; after final dilution 0.156 ng/ml)): 83%
- % Neutralization ([3]; Batch F: [CTC96] during incubation with virus 0.156 mg/ml (initial 0.3 mg/ml; after final dilution 0.078 ng/ml)): 63%
- % Neutralization ([3]; Batch G: [CTC96] during incubation with virus 0.078 mg/ml (initial 0.156 mg/ml; after final dilution 0.039 ng/ml)): 55%
- % Neutralization ([3]; Batch H: [CTC96] during incubation with virus 0.039 mg/ml (initial 0.078 mg/ml; after final dilution 0.019 ng/ml)): 18%
- % Neutralization ([3]; Batch I: [CTC96] during incubation with virus 0.019 mg/ml (initial 0.039 mg/ml; after final dilution 0.009 ng/ml)): 1%
- % Neutralization ([3]; Batch J: [CTC96] during incubation with virus 0.009 mg/ml (initial 0.019 mg/ml; after final dilution 0.0045 µg/ml)): 2%
- % Neutralization ([3]; Batch K: [CTC96] during incubation with virus 0.0045 mg/ml (initial 0.009 mg/ml; after final dilution 0.0023 ng/ml)): 1%
- Mouse Survival, Lower Quartile ([4]; CTC 96 0.05%): 84.00 days
- Mouse Survival, Means ([4]; CTC 96 0.05%): 83.167 days
- Mouse Survival, Median ([4]; CTC 96 0.05%): 84.00 days
- Mouse Survival, Upper Quartile ([4]; CTC 96 0.05%): 84.00 days
- Mouse Weight Changes during the Experiment, Lower Quartile ([4]; CTC 96 0.05%): 12.32%
- Mouse Weight Changes during the Experiment, Means ([4]; CTC 96 0.05%): 13.12%
- Mouse Weight Changes during the Experiment, Median ([4]; CTC 96 0.05%): 14.16%
- Mouse Weight Changes during the Experiment, Upper Quartile ([4]; CTC 96 0.05%): 15.62%
- Mouse Status at the end of the Experiment: Alive ([4]; CTC 96 0.05%): 11
- Mouse Status at the end of the Experiment: Dead ([4]; CTC 96 0.05%): 1
- Mouse Survival, Lower Quartile ([4]; CTC 96 0.2%): 57.50 days
- Mouse Survival, Means ([4]; CTC 96 0.2%): 69.83 days
- Mouse Survival, Median ([4]; CTC 96 0.2%): 84.00 days
- Mouse Survival, Upper Quartile ([4]; CTC 96 0.2%): 84.00 days
- Mouse Weight Changes during the Experiment, Lower Quartile ([4]; CTC 96 0.2%): 11.48%
- Mouse Weight Changes during the Experiment, Means ([4]; CTC 96 0.2%): 15.77%
- Mouse Weight Changes during the Experiment, Median ([4]; CTC 96 0.2%): 11.77%
- Mouse Weight Changes during the Experiment, Upper Quartile ([4]; CTC 96 0.2%): 24.80%
- Mouse Status at the end of the Experiment: Alive ([4]; CTC 96 0.2%): 8
- Mouse Status at the end of the Experiment: Dead ([4]; CTC 96 0.2%): 4
- Mouse Survival, Lower Quartile ([4]; CTC 96 1%): 84.00 days
- Mouse Survival, Means ([4]; CTC 96 1%): 84.00 days
- Mouse Survival, Median ([4]; CTC 96 1%): 84.00 days
- Mouse Survival, Upper Quartile ([4]; CTC 96 1%): 84.00 days
- Mouse Weight Changes during the Experiment, Lower Quartile ([4]; CTC 96 1%): 5.926%
- Mouse Weight Changes during the Experiment, Means ([4]; CTC 96 1%): 9.96%
- Mouse Weight Changes during the Experiment, Median ([4]; CTC 96 1%): 9.00%
- Mouse Weight Changes during the Experiment, Upper Quartile ([4]; CTC 96 1%): 12.40%
- Mouse Status at the end of the Experiment: Alive ([4]; CTC 96 1%): 12
- Mouse Status at the end of the Experiment: Dead ([4]; CTC 96 1%): 0
- effect on mouse weight gain ([4]; all treatment groups, drug used only to inactivate HPV-11 in vitro): no effect
- effect on mouse mortality (number of deaths, length of survival) ([4]; all treatment groups, drug used only to inactivate HPV-11 in vitro, listed as CTC 96): no differences among the treatment groups; also recorded: no effect
- inhibited adenovirus infection (adenovirus): 100%
